Reference: ChEMBL document CHEMBL1151757, “Synthesis, radiosynthesis, and biological evaluation of fluorine-18-labeled 2beta-carbo(fluoroalkoxy)-3beta-(3'-((Z)-2-haloethenyl)phenyl)nortropanes: candidate radioligands for in vivo imaging of the serotonin transporter with positron emission tomography” (J Med Chem, 2008)

Tests used:
Type in all cases: cell-based
HEK293 [1] = experiment: Selectivity for human NET over human SERT transfected in human HEK293 cells
[2] = target: Sodium-dependent serotonin transporter (Homo sapiens, UniProt P31645); experiment: Displacement of [3H](R,S)citalopram.HBr from human SERT transfected in human HEK293 cells
[3] = target: Sodium-dependent dopamine transporter (Homo sapiens, UniProt Q01959); experiment: Displacement of [3H]RTI-55 from human DAT transfected in human HEK293 cells
HEK293 [4] = experiment: Selectivity for human DAT over human SERT transfected in human HEK293 cells
[5] = target: Sodium-dependent noradrenaline transporter (Homo sapiens, UniProt P23975); experiment: Displacement of [3H]nisoxetine from human NET transfected in human HEK293 cells
Sodium-dependent noradrenaline transporter, sequence (P23975 whole entry): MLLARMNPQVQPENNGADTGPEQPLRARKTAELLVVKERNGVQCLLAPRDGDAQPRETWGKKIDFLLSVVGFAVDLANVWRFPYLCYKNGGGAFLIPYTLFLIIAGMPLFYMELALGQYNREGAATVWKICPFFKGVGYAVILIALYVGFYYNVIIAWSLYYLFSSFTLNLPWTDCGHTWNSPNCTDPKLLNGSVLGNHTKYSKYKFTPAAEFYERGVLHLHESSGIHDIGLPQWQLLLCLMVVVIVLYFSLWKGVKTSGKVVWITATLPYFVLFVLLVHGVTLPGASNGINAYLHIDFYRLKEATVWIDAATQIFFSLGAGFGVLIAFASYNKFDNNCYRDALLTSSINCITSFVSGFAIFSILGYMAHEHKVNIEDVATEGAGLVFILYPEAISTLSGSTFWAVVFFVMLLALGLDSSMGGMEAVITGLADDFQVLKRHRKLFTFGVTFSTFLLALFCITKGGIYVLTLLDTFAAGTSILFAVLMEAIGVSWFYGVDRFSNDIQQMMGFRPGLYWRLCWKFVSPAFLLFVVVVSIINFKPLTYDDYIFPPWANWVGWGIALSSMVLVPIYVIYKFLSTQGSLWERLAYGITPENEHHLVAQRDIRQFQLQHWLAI

Sodium-dependent dopamine transporter, sequence (Q01959 whole entry): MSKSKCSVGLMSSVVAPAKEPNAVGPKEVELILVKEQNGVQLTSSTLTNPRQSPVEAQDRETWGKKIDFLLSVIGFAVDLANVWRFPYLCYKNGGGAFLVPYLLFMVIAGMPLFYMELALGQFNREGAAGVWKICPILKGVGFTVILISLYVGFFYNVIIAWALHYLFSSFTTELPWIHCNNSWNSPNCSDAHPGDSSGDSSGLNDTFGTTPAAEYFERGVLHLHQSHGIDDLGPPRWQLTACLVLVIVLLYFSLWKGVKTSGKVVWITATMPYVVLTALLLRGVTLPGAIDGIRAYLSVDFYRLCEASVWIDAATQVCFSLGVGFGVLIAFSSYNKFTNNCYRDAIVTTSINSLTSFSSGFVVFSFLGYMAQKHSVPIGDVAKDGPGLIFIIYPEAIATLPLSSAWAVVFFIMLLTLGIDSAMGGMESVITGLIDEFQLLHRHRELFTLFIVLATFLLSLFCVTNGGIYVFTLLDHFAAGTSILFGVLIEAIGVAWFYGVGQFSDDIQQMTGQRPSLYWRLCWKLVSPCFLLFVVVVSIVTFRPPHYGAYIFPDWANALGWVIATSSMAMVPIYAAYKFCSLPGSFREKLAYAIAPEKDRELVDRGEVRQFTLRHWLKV
Sodium-dependent serotonin transporter, sequence (P31645 whole entry): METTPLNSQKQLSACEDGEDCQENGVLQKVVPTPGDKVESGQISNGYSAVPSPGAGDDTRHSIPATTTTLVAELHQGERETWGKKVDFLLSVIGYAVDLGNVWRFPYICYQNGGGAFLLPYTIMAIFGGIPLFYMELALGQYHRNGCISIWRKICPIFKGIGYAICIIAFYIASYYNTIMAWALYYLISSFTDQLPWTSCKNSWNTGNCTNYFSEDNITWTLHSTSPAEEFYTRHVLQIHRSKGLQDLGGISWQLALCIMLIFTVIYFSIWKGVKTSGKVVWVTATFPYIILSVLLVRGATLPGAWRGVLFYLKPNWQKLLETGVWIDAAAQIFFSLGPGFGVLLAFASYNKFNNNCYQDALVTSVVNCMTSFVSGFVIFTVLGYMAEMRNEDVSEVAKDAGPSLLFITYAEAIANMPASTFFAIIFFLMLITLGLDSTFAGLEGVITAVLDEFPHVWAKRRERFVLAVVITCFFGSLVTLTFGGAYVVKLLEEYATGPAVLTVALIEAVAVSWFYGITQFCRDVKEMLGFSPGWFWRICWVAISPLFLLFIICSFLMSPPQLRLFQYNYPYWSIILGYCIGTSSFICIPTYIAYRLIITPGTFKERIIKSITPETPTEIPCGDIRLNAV

| SMILES | Ratio Ki (HEK293 [1]) | Ki [2] [nM] | Ki [3] [nM] | Ratio Ki (HEK293 [4]) | Ki [5] [nM] |
| --- | --- | --- | --- | --- | --- |
| O=C(OCCCF)C1C2CCC(CC1c1cccc(/C=C\I)c1)N2 (stereo not given) | 260 | 0.26 | 180 | 691 | 67.5 |
| O=C(OCCCF)C1C2CCC(CC1c1cccc(/C=C\Br)c1)N2 (stereo not given) | 92 | 0.33 | 119 | 360 | 30.2 |
| O=C(OCCF)C1C2CCC(CC1c1cccc(/C=C\I)c1)N2 (stereo not given) | 256 | 0.43 | 87.6 | 204 | 110 |
| O=C(OCCF)C1C2CCC(CC1c1cccc(/C=C\Br)c1)N2 (stereo not given) | 307 | 0.33 | 35.5 | 108 | 101 |
| O=C(OCCF)C1C2CCC(CC1c1cccc(/C=C/I)c1)N2 (trans isomer) | 78 | 15.2 | 274 | 18 | 1180 |
